Laboratory results reported in ChEMBL document CHEMBL1201862, “PubChem BioAssay data set” (2004).
Calls of active or inactive are those of the source.

Experiments:
[1] = molecular target: NADPH oxidase 1 (Homo sapiens, UniProt Q9Y5S8); experiment: Late-stage luminescence-based cell-based dose response assay to identify inhibitors of NADPH oxidase 1 (NOX1): Synthesized analogs 2.; assay type: functional
[2] = tested on: Vero; experiment: host cell cytotoxicity of antiviral hits, dose response, cytotoxicity control for West Nile virus antiviral project, secondary assay (AID 1650); assay type: functional; conditions: Chlorocebus sabaeus
[3] = tested on: Vero; experiment: cells; assay type: functional; conditions: Chlorocebus sabaeus
[4] = molecular target: SWI/SNF-related matrix-associated actin-dependent regulator of chromatin subfamily A member 2 (Homo sapiens, UniProt P51531); experiment: Luminescence-based cell-based high throughput dose response assay to identify activators of the function of SWI/SNF related, matrix associated, actin dependent regulator of chromatin, subfamily a, member 2 (SMARCA2, BRM).; assay type: functional
[5] = Counterscreen for activators of the function of SWI/SNF related, matrix associated, actin dependent regulator of chromatin, subfamily a, member 2 (SMARCA2, BRM): Luminescence-based cell-based high throughput dose response assay to identify non-selective compounds using the VP16 reporter assay.; assay type: functional
[6] = molecular target: Induced myeloid leukemia cell differentiation protein Mcl-1 (Homo sapiens, UniProt Q07820); experiment: MCL1-BIM BH3 interaction inhibitors, dose response, biochemical, fluorescence polarization, BIM-BH3 peptide, 1536-well (AID 2217)
[7] = molecular target: Bcl-2-like protein 1 (Homo sapiens, UniProt Q07817); experiment: BCL-XL inhibitors, dose response, selectivity assay for MCL1 inhibitor project, biochemical, fluorescence polarization, 1536-well (AID 2218)
[8] = molecular target: T1, Carboxy-terminal domain RNA polymerase II polypeptide A small phosphatase 1 (Homo sapiens, UniProt Q9GZU7); experiment: inhibitors of CTDSP1, concentration-response testing, biochemical assay, absorbance-based, actives from ultra-high-throughput screening (AID 540297); assay type: functional
T1 sequence (Q9GZU7 whole entry): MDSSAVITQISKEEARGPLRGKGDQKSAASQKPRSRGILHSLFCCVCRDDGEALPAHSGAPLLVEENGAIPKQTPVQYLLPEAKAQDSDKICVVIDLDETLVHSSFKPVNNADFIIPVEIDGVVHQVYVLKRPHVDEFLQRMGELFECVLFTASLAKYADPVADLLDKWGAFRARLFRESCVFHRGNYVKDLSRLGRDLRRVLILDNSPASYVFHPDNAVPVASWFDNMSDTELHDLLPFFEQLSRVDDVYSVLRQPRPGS

[9] = molecular target: T2, Small ubiquitin-related modifier 1 (Homo sapiens, UniProt P63165); experiment: inhibitors of SUMO1 peptide binding, dose response, biochemical, fluorescence polarization, uHTS hits (AID 624382); assay type: functional; conditions: read-out: IC50_Mean
[10] = molecular target: T2, Small ubiquitin-related modifier 1; experiment: inhibitors of SUMO1 partner interactions, dose response, biochemical, FRET (AID 624383); assay type: functional; conditions: read-out: IC50_Mean
[11] = molecular target: T3, Caspase-6 (Homo sapiens, UniProt P55212); experiment: human caspase-6 inhibitors, dose response, biochemical, VEID-R110 fluorescence, cherry-pick (AID 720632)
T3 sequence (P55212 whole entry): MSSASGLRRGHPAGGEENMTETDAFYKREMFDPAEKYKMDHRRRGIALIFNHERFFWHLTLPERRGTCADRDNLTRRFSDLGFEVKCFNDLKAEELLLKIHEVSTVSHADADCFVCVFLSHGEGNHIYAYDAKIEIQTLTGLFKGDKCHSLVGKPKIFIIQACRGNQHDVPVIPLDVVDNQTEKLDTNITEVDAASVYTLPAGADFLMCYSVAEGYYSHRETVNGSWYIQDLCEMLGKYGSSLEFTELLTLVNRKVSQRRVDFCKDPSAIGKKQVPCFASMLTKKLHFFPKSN

[12] = molecular target: Glyceraldehyde-3-phosphate dehydrogenase (Homo sapiens, UniProt P04406)
[13] = molecular target: T4, Bcl-2-related protein A1 (Mus musculus, UniProt Q07440); experiment: Bfl-1 inhibitors blocking BH3 peptide binding, confirmation, biochemical, TR-FRET, mouse Bfl-1 (AID 621);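 also: TR-FRET binding of GST-Bfl-1 to FITC-labelled Bid peptide via terbium antibody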
T4 sequence (Q07440 whole entry): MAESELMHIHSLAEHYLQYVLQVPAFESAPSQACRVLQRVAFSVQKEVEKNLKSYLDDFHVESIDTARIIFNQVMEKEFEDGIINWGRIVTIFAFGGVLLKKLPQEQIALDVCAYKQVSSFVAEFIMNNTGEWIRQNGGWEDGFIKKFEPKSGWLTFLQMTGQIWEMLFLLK

[14] = molecular target: T4, Bcl-2-related protein A1; experiment: Bfl-1 binding inhibitors, SAR follow-up, biochemical, fluorescence polarization (AID 1070)
[15] = molecular target: Potassium voltage-gated channel subfamily KQT member 2 (Rattus norvegicus, UniProt O88943, W236L); experiment: KCNQ2 channel potentiators, dose response, mechanism study for KCNQ2 potentiator project, cell-based, automated electrophysiology (AID 2603); assay type: functional
[16] = molecular target: T5, Replicative DNA helicase DnaB (Mycobacterium tuberculosis, UniProt P9WMR3); experiment: DnaB intein splicing inhibitors, dose response, biochemical, cell-free fluorescence (AID 449749); assay type: functional
T5 sequence (P9WMR3 whole entry): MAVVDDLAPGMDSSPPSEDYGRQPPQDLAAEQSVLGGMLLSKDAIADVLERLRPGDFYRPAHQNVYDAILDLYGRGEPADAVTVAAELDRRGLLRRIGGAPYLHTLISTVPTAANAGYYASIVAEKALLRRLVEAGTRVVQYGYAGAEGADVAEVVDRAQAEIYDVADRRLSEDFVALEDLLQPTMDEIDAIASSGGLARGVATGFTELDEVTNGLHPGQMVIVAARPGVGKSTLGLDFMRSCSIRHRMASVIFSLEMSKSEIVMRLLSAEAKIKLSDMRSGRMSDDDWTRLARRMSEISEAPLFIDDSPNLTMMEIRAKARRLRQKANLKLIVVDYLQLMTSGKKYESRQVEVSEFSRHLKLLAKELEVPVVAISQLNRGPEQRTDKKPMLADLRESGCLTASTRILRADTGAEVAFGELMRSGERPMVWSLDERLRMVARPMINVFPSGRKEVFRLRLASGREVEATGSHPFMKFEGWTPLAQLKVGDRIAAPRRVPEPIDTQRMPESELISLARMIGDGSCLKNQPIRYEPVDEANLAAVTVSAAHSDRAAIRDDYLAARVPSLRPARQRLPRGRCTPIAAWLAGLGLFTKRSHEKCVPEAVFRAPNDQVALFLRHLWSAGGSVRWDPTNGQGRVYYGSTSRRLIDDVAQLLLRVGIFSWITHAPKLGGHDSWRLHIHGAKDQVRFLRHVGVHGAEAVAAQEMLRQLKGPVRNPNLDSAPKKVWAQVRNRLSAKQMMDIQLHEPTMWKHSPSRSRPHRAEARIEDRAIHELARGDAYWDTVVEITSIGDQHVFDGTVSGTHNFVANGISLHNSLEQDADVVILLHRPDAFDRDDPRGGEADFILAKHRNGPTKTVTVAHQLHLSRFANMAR

[17] = molecular target: T6, High affinity choline transporter 1 (Homo sapiens, UniProt Q9GZV3); experiment: CHT inhibitors, dose response, cell-based, 5-point CRC, membrane potential dye (AID 504840); assay type: functional
T6 sequence (Q9GZV3 whole entry): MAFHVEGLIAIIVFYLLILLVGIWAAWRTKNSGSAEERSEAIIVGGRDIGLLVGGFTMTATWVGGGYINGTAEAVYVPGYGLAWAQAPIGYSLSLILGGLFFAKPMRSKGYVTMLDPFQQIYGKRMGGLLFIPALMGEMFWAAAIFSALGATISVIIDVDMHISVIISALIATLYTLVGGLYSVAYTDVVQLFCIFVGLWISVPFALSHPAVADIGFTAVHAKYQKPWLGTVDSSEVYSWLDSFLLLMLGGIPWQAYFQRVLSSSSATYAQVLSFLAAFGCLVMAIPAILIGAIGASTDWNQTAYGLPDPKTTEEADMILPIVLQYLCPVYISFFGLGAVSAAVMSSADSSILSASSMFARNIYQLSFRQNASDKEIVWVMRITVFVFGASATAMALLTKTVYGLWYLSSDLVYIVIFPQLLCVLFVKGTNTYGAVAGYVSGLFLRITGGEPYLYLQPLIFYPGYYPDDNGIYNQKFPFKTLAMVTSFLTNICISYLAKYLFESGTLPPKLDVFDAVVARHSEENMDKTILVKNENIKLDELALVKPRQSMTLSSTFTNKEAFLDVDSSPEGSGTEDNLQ

[18] = tested on: Vero; experiment: Vero cell cytotoxicity, cytotoxicity control for flavivirus capping enzyme inhibitors (AID 588742); assay type: functional; conditions: Chlorocebus sabaeus
[19] = molecular target: T7, Protein RecA (Mycobacterium tuberculosis, UniProt P9WHJ3); experiment: Fluorescence Cell-Free Homogeneous Dose Retest to Identify Inhibitors of RecA-Intein Splicing Activity. [Related pubchem assays (depositor defined):AID2097, AID2223, AID489010, AID492950]; assay type: functional
T7 sequence (P9WHJ3 whole entry): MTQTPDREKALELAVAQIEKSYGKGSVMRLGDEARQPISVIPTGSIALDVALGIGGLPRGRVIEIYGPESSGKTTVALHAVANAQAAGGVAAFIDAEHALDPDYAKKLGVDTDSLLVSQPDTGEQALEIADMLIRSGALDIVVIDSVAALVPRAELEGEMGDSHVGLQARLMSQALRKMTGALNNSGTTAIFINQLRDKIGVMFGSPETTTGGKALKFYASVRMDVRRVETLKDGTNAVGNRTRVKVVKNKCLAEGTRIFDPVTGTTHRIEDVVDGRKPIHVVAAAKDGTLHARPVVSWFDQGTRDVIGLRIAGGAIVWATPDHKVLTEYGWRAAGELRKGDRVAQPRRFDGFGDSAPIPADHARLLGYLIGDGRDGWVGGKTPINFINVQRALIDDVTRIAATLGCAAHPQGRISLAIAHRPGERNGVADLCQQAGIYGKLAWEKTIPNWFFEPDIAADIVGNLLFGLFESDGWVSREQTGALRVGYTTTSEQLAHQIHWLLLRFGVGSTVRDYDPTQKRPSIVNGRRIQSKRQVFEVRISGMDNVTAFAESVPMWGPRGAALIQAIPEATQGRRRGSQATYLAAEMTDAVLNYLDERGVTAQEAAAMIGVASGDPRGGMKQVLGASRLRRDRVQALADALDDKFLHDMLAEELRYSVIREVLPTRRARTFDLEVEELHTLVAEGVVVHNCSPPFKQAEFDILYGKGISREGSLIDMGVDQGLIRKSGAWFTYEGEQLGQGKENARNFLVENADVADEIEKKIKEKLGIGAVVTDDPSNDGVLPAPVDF

[20] = molecular target: T6, High affinity choline transporter 1; experiment: CHT inhibitors, dose response, cell-based, 10-point CRC, membrane potential dye (AID 588401); assay type: functional;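 also: membrane potential dye fluorescence of choline-evoked depolarization via CHT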
[21] = molecular target: Genome polyprotein (dengue virus type 2, UniProt P29990); experiment: Dengue-2 NS5 methyltransferase inhibitors, primary screen, biochemical, confirmation dose response (AID 588689); assay type: functional
[22] = Shn3 3'UTR reporter inhibitors, dose response, cell-based, Clone20 osteoblasts, firefly luciferase, cherry-picked (AID 624132); assay type: functional;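 also: firefly luciferase luminescence from reporter carrying the Shn3 3'UTR in osteoblasts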
[23] = HepG2 cell cytotoxicity, dose response, cytotoxicity control for Shn3 inhibitor project, CellTiter-Glo, cherry-picked (AID 624134); assay type: functional, cell-based
[24] = control 3'UTR Renilla luciferase suppression, dose response, counter-screen for Shn3 inhibitor project, cell-based, Clone20-Shn3RL, cherry-picked (AID 624133); assay type: functional
[25] = molecular target: ATP-binding cassette sub-family B member 6 (Homo sapiens, UniProt Q9NP58); experiment: ABCB6 transporter inhibitors, porphyrin accumulation, dose response, flow cytometry, K562-ABCB6 cells, cherry pick 02 (AID 624487); assay type: functional; conditions: read-out: EC50_MICROM
[26] = M. tuberculosis H37Rv growth inhibitors, H37Rv strain (AID 1626); assay type: functional

T2 sequence (P63165 whole entry): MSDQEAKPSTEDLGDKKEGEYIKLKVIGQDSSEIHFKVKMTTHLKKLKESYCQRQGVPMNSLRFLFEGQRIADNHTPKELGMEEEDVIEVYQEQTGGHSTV
ATP-binding cassette sub-family B member 6, sequence (Q9NP58 whole entry): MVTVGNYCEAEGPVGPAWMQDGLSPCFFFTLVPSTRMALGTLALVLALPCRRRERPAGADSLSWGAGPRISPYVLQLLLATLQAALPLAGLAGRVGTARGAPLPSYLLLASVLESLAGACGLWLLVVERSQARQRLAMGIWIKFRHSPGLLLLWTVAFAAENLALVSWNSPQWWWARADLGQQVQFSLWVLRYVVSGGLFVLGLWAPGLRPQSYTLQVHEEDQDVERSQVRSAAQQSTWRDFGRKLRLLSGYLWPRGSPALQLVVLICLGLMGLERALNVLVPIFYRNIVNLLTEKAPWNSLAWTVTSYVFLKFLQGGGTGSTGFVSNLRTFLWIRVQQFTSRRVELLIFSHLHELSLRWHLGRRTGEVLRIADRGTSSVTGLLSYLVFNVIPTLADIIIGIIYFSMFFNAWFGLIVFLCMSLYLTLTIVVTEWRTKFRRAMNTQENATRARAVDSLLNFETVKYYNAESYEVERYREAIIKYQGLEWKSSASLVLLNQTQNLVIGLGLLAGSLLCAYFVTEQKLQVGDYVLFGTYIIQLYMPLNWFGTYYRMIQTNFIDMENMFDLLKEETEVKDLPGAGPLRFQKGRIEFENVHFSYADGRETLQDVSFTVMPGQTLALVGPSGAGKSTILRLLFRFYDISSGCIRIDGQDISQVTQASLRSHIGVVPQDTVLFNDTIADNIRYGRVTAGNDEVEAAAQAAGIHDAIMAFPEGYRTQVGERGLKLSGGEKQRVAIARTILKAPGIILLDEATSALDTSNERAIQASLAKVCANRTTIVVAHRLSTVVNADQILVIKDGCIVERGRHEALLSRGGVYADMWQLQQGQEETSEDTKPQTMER
NADPH oxidase 1, sequence (Q9Y5S8 whole entry): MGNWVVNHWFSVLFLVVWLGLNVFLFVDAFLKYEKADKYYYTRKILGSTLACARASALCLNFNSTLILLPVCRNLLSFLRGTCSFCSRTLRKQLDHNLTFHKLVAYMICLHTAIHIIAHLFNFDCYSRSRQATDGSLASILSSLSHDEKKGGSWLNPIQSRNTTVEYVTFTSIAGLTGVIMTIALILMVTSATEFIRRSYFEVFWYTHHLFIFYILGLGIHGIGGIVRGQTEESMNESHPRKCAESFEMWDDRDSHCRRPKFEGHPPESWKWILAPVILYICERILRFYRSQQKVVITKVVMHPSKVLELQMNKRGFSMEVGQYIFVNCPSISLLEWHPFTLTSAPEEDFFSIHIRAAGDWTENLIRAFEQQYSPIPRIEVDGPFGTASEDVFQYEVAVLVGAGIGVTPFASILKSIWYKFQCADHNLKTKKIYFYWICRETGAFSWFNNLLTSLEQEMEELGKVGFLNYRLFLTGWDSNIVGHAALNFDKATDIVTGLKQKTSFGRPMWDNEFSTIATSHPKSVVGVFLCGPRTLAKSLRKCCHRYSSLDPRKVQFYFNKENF
Induced myeloid leukemia cell differentiation protein Mcl-1, sequence (Q07820 whole entry): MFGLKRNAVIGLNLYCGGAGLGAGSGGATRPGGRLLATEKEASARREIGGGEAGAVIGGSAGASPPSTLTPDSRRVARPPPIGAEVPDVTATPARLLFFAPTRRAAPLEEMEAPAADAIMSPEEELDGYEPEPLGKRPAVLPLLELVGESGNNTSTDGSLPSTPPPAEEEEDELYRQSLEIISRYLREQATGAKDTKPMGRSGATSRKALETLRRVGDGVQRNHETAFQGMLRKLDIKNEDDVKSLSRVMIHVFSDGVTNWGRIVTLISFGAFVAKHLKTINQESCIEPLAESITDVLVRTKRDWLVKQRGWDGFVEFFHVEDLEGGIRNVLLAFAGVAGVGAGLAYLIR
SWI/SNF-related matrix-associated actin-dependent regulator of chromatin subfamily A member 2, sequence (P51531 whole entry): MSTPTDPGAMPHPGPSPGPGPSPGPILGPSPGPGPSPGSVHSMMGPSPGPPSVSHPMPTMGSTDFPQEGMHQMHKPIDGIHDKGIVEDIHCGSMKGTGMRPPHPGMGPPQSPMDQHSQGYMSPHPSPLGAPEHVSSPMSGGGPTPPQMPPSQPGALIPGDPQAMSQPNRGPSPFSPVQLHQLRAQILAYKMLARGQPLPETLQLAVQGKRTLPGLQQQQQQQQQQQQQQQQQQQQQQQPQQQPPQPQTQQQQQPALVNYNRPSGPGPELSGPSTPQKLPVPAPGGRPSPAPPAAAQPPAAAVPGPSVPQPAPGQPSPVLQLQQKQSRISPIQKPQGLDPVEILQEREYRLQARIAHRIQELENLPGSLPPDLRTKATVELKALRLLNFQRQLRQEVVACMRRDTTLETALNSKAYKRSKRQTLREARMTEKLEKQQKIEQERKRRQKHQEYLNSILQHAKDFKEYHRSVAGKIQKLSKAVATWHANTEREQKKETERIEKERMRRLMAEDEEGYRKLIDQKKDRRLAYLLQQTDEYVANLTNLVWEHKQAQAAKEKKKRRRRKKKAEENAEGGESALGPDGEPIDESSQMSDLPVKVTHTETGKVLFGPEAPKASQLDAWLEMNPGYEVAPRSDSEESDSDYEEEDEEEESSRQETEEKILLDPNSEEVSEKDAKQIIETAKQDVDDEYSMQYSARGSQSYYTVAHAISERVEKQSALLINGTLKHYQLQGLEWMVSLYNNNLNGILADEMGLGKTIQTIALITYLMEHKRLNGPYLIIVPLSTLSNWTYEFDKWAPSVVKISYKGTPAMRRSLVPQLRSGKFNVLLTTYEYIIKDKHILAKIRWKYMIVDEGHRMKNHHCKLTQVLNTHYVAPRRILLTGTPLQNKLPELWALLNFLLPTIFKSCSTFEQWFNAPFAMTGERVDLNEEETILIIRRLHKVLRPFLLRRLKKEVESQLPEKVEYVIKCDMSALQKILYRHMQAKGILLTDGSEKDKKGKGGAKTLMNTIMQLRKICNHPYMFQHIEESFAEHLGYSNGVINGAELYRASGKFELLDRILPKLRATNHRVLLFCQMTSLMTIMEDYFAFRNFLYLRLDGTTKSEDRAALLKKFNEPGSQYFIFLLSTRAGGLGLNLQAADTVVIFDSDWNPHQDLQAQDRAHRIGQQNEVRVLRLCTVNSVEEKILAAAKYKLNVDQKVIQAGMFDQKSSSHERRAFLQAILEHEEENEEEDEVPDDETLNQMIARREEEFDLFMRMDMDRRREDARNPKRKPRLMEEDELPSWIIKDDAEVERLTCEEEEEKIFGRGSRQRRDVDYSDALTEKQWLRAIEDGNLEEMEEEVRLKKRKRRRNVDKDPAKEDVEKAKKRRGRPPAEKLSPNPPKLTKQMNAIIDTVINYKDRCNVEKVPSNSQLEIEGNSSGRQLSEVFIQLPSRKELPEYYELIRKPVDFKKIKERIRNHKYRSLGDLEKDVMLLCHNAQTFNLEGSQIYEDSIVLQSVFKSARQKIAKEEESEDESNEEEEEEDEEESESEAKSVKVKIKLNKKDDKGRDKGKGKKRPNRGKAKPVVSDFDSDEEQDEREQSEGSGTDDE
Genome polyprotein, sequence (P29990 2492-3391 limits assumed): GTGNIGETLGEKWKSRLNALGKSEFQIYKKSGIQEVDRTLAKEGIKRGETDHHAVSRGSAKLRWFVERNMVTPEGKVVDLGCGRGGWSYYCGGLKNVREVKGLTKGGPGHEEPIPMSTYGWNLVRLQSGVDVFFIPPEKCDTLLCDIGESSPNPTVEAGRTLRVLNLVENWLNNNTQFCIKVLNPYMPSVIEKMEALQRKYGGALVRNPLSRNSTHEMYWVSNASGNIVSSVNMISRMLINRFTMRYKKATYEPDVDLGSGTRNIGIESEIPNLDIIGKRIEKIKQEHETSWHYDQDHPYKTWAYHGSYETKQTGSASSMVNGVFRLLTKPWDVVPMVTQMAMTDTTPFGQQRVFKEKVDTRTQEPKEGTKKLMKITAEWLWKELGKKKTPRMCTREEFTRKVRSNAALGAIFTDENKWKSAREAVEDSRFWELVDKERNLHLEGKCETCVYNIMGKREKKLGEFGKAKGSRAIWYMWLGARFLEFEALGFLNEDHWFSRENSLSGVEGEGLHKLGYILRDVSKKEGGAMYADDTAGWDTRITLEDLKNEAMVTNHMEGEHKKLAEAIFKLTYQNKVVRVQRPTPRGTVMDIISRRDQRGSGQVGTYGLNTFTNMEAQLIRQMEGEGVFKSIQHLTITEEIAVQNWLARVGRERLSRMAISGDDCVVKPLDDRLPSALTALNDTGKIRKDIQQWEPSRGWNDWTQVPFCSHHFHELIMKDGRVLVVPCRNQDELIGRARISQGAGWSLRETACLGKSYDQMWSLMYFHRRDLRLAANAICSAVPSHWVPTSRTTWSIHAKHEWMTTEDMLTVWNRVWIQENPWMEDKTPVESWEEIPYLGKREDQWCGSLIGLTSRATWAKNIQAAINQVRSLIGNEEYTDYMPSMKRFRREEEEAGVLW
Bcl-2-like protein 1, sequence (Q07817 whole entry, the tested form may be a part): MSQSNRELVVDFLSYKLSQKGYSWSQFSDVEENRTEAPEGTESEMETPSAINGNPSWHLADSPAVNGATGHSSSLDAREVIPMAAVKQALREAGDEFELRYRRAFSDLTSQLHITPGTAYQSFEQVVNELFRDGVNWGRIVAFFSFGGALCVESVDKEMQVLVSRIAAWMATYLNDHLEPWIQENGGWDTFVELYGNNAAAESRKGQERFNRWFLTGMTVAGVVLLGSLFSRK
Glyceraldehyde-3-phosphate dehydrogenase, sequence (P04406 whole entry): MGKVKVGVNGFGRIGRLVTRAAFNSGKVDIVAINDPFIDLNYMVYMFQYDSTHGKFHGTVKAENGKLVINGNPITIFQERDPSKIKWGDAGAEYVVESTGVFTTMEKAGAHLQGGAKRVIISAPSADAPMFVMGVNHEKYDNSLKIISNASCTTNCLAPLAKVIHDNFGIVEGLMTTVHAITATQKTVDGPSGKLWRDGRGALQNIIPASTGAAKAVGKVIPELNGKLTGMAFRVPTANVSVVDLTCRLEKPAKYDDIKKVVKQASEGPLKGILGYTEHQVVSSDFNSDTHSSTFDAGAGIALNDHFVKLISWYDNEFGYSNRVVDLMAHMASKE

C=CC(=O)Nc1ccc2c(c1)Sc1ccccc1N2C
IC50 [1]: 2.38 µM (active)

COCCNC(=O)/C(C#N)=C/C=C/c1ccccc1[N+](=O)[O-]
CC50 [2]: 13.4 µM (active)
CC50 [3]: 16 µM (active)
EC50 [4]: > 91.1 µM (inactive)
EC50 [5]: > 91.1 µM (inactive)

Cc1ccc(C)c(S(=O)(=O)Nc2ccc3oc(C)c(C(=O)O)c3c2)c1
IC50 [6]: 18.2 µM (not active)
IC50 [7]: 93.3 µM (not active)
IC50 [8]: 3.21 µM (active)
IC50 [9]: > 66.6 µM (inactive)
IC50 [10]: 11.3 µM (active)
AC50 [11]: 3.67 µM (active)

O=C1C(Cl)=C(N2CCN(CCO)CC2)C(=O)N1c1cccc([N+](=O)[O-])c1
IC50 [12]: > 100 µM (not active)
IC50 [13]: 10.8 µM (active)
IC50 [14]: 30.9 µM (active)

CCc1nnc(NC(=O)c2nc(S(=O)(=O)Cc3ccc(C)cc3)ncc2Cl)s1
EC50 [15]: 4.8 µM (active)
AC50 [16]: 5.97 µM (active)
IC50 [17]: 3.31 µM (active)
CC50 [18]: 28.9 µM (active)
EC50 [19]: 4.11 µM (active)
IC50 [20]: 3.11 µM (active)
IC50 [21]: > 100 µM (active)
AC50 [22]: 3.01 µM (active)
AC50 [23]: > 70 µM (inactive)
AC50 [24]: 6.18 µM (active)
EC50 [25]: 29.5 µM (active)

Cc1ccccc1NC(=O)Nc1ccc(C(F)(F)F)cc1
IC50 [26]: > 100 µM (active)
